Results reported in patent publication US10576147B2, “Muramyl peptide derivative compound, synthesis and uses thereof” (BHARAT BIOTECH INTERNATIONAL LIMITED, priority 2015, dated 2020).

Experiments:
BALB/c mice [1] = test: OVA-specific IgG after immunization (indirect ELISA); assay type: in vivo; settings: OVA 100 μg alone, s.c. Days 1 and 15, sera 2 weeks after last immunization
Experimental: Male BALB/c mice were immunized subcutaneously with OVA 100 μg alone or with OVA 100 μg dissolved in saline containing analogues (7.5, 15 or 30 μg) on Days 1 and 15. Sera were collected 2 weeks after the last immunization. OVA-specific IgG antibodies in the sera were measured by an Indirect ELISA. The values are presented as log 2 titre.

BALB/c mice [2] = test: Total IgG1 and IgG2a after immunization (sandwich ELISA); assay type: in vivo; settings: OVA 100 μg alone
Experimental: Male BALB/c mice were immunized subcutaneously with OVA 100 μg alone or with OVA 100 μg dissolved in saline containing analogues (7.5, 15 or 30 μg) on Days 1 and 15. Sera were collected 2 weeks after the last immunization. Total IgG1 and IgG2a antibodies in the sera were measured by Sandwich ELISA. The values are presented as log 2 titre.

OVA: Ovalbumin (OVA) antigen, given alone
Log(2) IgG Antibody Titre (BALB/c mice [1]): 12.64
Log(2) Total IgG1 Antibody Titre (BALB/c mice [2]): 14.39
Log(2) Total IgG2a Antibody Titre (BALB/c mice [2]): 11.89
